Source: patent publication US12509734B2, “Systems and methods to assess microbiomes and treatments thereof” (priority 2013, dated 2025)

Columns and labels:
[1] = system: vaginal microbiota (PB-primer target groups); assay: PB-qPCR of acute BV and post-tinidazole vaginal lavages (Tables 3A, 3B); type: in vivo, human; details: for Post-Tinidazole PB-qPCR Cells/sample: post-tinidazole vaginal lavage
Experimental: DNA extraction. Bacteria were lysed from vaginal lavages by adding sodium hydroxide and sodium dodecyl sulfate to final concentrations of 133 mM and 10% respectively, followed by vigorous reciprocal shaking at room temperature for 30 m. This lysate was then extracted with phenol:chloroform:isoamyl alcohol (25:24:1) then chloroform. The DNA was precipitated with an equal volume of 100% isopropanol, washed once with 70% isopropanol, and dissolved in 100 μl TE (10 mM Tris pH 8, 1 mM EDTA). DNA was stored at −20° C. until further use. […] DNA was amplified from extracts of reference bacterial species as single colonies, using QUICKEXTRACT™ Plant DNA 144 Extraction Solution (Epicentre, Madison, WI), modified by heating at 65° C. for 30 m, 95° C. for 1 m.
PCR primers, blockers, and amplification. Standard PCR was performed on ROBOCYCLER™ Gradient 96 (Stratagene). Real-time PCR was performed using Cepheid SMARTCYCLER™ or LIGHTCYCLER® 480 II (Roche Applied Sciences) thermal cyclers. The reaction utilized individually optimized amounts of each primer, 250 μM dNTPs (Invitrogen), 20 mM Tris pH 8.3, 3 mM MgCl2, 50 mM KCl, and Taq DNA polymerase, 5 units from either GeneChoice or New England Biolabs, 2.5 units GenScript Green Taq, or 1 unit of glycerol-free Taq DNA polymerase from APEX (Genesee Scientific) per 100 μl reaction volume, including either 0.073×SYBR® Green I Nucleic Acid Stain (FMC Bio Products) or 0.25 μl of 15 μM SYTO9 (Invitrogen) for qPCR reactions.
Calculation of titers and percent compositions. Cp values from reactions in LIGHTCYCLER® 480 II Real-Time PCR System (Roche Applied Science) were converted to molecules by comparison to Cp values of a standard curve from the same run derived from four to eight 10-fold serial dilutions of an amplicon quantified using the QUANT-IT® assay (Invitrogen). Molecules per μl were converted to cells per 5 ml lavage, assuming an average of five ribosomal genes per cell and proportioned to the ratio of the volume of the lavage used in the DNA prep and its final volume.
If the titer of the sample was below the limit of detection for the PB assay, nested PCR on a 24-cycle amplicon from a longer broad-spectrum 16S amplicon was performed (Tables 3A-3D). If the nested PCR was negative, the titer of the original sample was assumed to be 0; if the nested PCR was positive, the titer was reported as below the concentration of most dilute but still positive sample in each specific run. Amplicons were sequenced to verify that targeted species were amplified. Mixed amplicons were cloned into pGEM-T™ easy (Promega) and approximately 10 of the resultant clones sequenced. Percentages were calculated by dividing the titer from each PB by the sum of the titers from all the PB primers.
For Tables 3A-3D, titers were determined by qPCR using standard curves and converted to approximate cells/sample as described herein. Primers BU4&BU6 were used alone for the 16S-C&S but the extended set (Table 1) was used for qPCR. Species were identified by Sanger sequencing of either uncloned amplicons, in cases where a single species was dominant for the target group, or by sequencing small numbers of E. coli clones derived from the amplicons if mixed. In silico performance was determined using the RDP website; Target hits is the number of database entries of “good” quality >1200 bp within the target grouping; Total hits is the total number of these hits in the RDP database; Specificity=target/total hits; Total target number=number of RDP entries in the target group; Target coverage=target hits/target number. Notes: uc=uncultured; n.d.=none detected; n.a.=not applicable; t=no subuniversal primer; *=detected by nested PCR only, reporting limit of detection; [ ]=identity; ˜=novel species, closest hit listed. […] 1 min and ended with 72° C. 5 min; ***=excludes ˜⅓ of Clostridium XI; **** performance not determined, showing forward primer only. […]

bacterial vaginosis (BV) = assay: Clinical assessment of BV patients after therapy (Amsel criteria, Nugent score, recurrence); type: in vivo, human
Text: Patients. Five African American participants were followed at the Vaginitis Clinic at Wayne State University and had been treated for recurrent episodes symptomatic bouts of BV. Patients were enrolled after protocol explanation and written informed consent was obtained. The study was endorsed by the Human Investigational Review Board of Wayne State University. At the time of enrollment, patients were diagnosed with florid symptomatic acute BV, characterized by the presence of at least 3 of the 4 Amsel criteria (homogeneous vaginal discharge, pH elevated above 4.5, clue cells>20%, positive whiff test) and Nugent scores of at least 8.
At this immediate PT visit, patients were given Catch-All Sample Collection Swabs (Epicentre Biotechnologies, Madison, WI) and 15 mL conical tubes for vaginal specimen self-collection. […] Samples from a previously characterized group of recurrent BV patients, sampled before and after treatment, were also evaluated by Lb-qPCR. Reichman et al., Sexually Transmitted Diseases 36: 732-734, 2009.

CCS(=O)(=O)CCn1c([N+](=O)[O-])cnc1C [tinidazole]
Composition of post-tinidazole sample ([1]; PB-qPCR, FIG. 5B): dominated by L. iners
Fold higher G. vaginalis in the BV sample compared to post-tinidazole ([1]; one patient, vaginal lavages): approximately 10^4 fold
Fold lower titer of L. iners in the acute BV sample compared to post-tinidazole ([1]; one patient, vaginal lavages): approximately 20 fold
Post-Tinidazole PB-qPCR Cells/sample ([1]; target Actinobacteridae): 5.7E+04 Cells/sample
Post-Tinidazole PB-qPCR Cells/sample ([1]; target Bacteroidaceae/uc Prevotellaceae): 4.7E+06 Cells/sample
Post-Tinidazole PB-qPCR Cells/sample ([1]; target Beta-Proteobacteria): 2.6E+04 Cells/sample
Post-Tinidazole PB-qPCR Cells/sample ([1]; target Broad-spectrum (BU4L/BU6R)): 1.4E+10 Cells/sample
Post-Tinidazole PB-qPCR Cells/sample ([1]; target Clostridiales Incertae Sedis XI): 0 Cells/sample
Post-Tinidazole PB-qPCR Cells/sample ([1]; target Clostridiales Incertae Sedis XII): 5.5E+03 Cells/sample
Post-Tinidazole PB-qPCR Cells/sample ([1]; target Coriobacteridae): 4.0E+04 Cells/sample
Post-Tinidazole PB-qPCR Cells/sample ([1]; target Cross-family Clostridia): 3.9E+03 Cells/sample
Post-Tinidazole PB-qPCR Cells/sample ([1]; target Enterobacteriales, Pasteurellales, Pseudomonadaceae): 2.9E+03 Cells/sample
Post-Tinidazole PB-qPCR Cells/sample ([1]; target Fusobacterium): 2.9E+02 Cells/sample
Post-Tinidazole PB-qPCR Cells/sample ([1]; target Lachnospiracea uc & incertae sedis, Clostridium IVa, Roseburia): 2.8E+05 Cells/sample
Post-Tinidazole PB-qPCR Cells/sample ([1]; target Lactobacillaceae): 8.4E+09 Cells/sample
Post-Tinidazole PB-qPCR Cells/sample ([1]; target Megasphaera/Dialister/Veillonella): 1.8E+03 Cells/sample
Post-Tinidazole PB-qPCR Cells/sample ([1]; target Mobiluncus): 0 Cells/sample
Post-Tinidazole PB-qPCR Cells/sample ([1]; target Mycoplasmatales): 8.3E+04 Cells/sample
Post-Tinidazole PB-qPCR Cells/sample ([1]; target Peptostreptococcaceae): 0 Cells/sample
Post-Tinidazole PB-qPCR Cells/sample ([1]; target Staphylococcus): 1.0E+05 Cells/sample
Post-Tinidazole PB-qPCR Cells/sample ([1]; target Streptococcus): 8.1E+05 Cells/sample
Post-Tinidazole PB-qPCR Cells/sample ([1]; target uc Clostridiales (BVAB2&3 subset)): 0 Cells/sample
Clinical status after treatment (bacterial vaginosis (BV); BV patient (Nugent 10 at acute phase), 500 mg twice a day for 10 days): full remission
Amine test after therapy (bacterial vaginosis (BV); P4, 500 mg bid for 7 days): negative
Clinical status one week after completing therapy (bacterial vaginosis (BV); P4, 500 mg bid for 7 days): entirely asymptomatic
Vaginal pH after therapy (bacterial vaginosis (BV); P4, 500 mg bid for 7 days): 4.2
Recurrence of BV (bacterial vaginosis (BV); P4, followed for a month): did not recur
Outcome at return within three weeks by Amsel criteria (bacterial vaginosis (BV); five recurrent BV patients, Nugent scores of 0 except Patient 5): clinical cure
